Experimental data published in patent US11622991B2, “Protocol for treatment of lupus nephritis” (Aurinia Pharmaceuticals Inc., priority 2017, dated 2023).

Test system: lupus nephritis
Test: Predictability of week 48 partial remission from early reduction in UPCR (Tables 4-8)
Assay type: in vivo, human
Experimental: In the study reported in Example 1, the predictability of outcomes based on markers at early time points were determined.
This is important because it is undesirable to subject a patient to unnecessary treatment, even if the treatment is relatively safe.
PR is defined as at least 50% reduction in proteinuria (i.e. UPCR).
Sensitivity is defined as the probability that a subject showing PR at 48 weeks would have shown a favorable result with regard to the marker at the designated early time point. In the tables below, this is the ratio of the number of subjects with favorable marker results (early drop or normalization) to the total subjects with 48 week PR.
Specificity is defined as the probability that a subject not showing PR at 48 weeks would have shown an unfavorable result with regard to the marker at the designated early time point. In the tables below, this is the ratio of the number of subjects with unfavorable marker results (no early drop or no normalization) to the total subjects with no 48 week PR.
Positive predictive value is defined as the probability that a subject showing a favorable result with respect to the marker at an earlier time point would show PR at 48 weeks. In the tables below, this is the ratio of the number of subjects with favorable marker results who have 48 week PR to those with favorable marker results (early reduction or yes column).
Negative predictive value is defined as the probability that a subject showing an unfavorable result with respect to the marker at an earlier time point would not show PR at 48 weeks. In the tables below, this is the ratio of the number of subjects with unfavorable marker results who have no PR at 48 weeks to the total subjects with unfavorable marker results (no early reduction or no column).

[1] = 25% reduction in UPCR, Week 26, 23.7 mg BID
[2] = 25% reduction in UPCR, Week 26, 39.5 mg BID
[3] = 25% reduction in UPCR, Week 36, 23.7 mg BID
[4] = 25% reduction in UPCR, Week 36, 39.5 mg BID
[5] = 25% reduction in UPCR, Week 48, 23.7 mg BID
[6] = 25% reduction in UPCR, Week 48, 39.5 mg BID
[7] = early 30% reduction in UPCR, week 2, 39.5 mg BID
[8] = early 30% reduction in UPCR, week 6, 23.7 mg BID
[9] = early 30% reduction in UPCR, week 8, 23.7 mg BID
[10] = early 30% reduction in UPCR, week 8, 39.5 mg BID
[11] = early 30% reduction in UPCR, week 12, 39.5 mg BID
[12] = early 30% reduction in UPCR, week 16, 23.7 mg BID
[13] = early 30% reduction in UPCR, week 16, 39.5 mg BID
[14] = early 30% reduction in UPCR, week 20, 23.7 mg BID
[15] = early 30% reduction in UPCR, week 24, 23.7 mg BID
[16] = early 30% reduction in UPCR, week 24, 39.5 mg BID
[17] = early 30% reduction in UPCR, week 26, 23.7 mg BID
[18] = early 30% reduction in UPCR, week 26, 39.5 mg BID
[19] = early 30% reduction in UPCR, week 36, 23.7 mg BID
[20] = early 30% reduction in UPCR, week 36, 39.5 mg BID
[21] = early 30% reduction in UPCR, week 48, 23.7 mg BID
[22] = early 30% reduction in UPCR, week 48, 39.5 mg BID
[23] = early 35% reduction in UPCR, week 2, 39.5 mg BID
[24] = early 35% reduction in UPCR, week 6, 23.7 mg BID
[25] = early 35% reduction in UPCR, week 8, 23.7 mg BID
[26] = early 35% reduction in UPCR, week 8, 39.5 mg BID
[27] = early 35% reduction in UPCR, week 12, 23.7 mg BID
[28] = early 35% reduction in UPCR, week 12, 39.5 mg BID
[29] = early 35% reduction in UPCR, week 16, 23.7 mg BID
[30] = early 35% reduction in UPCR, week 16, 39.5 mg BID
[31] = early 35% reduction in UPCR, week 20, 23.7 mg BID
[32] = early 35% reduction in UPCR, week 24, 23.7 mg BID
[33] = early 35% reduction in UPCR, week 24, 39.5 mg BID
[34] = early 35% reduction in UPCR, week 26, 23.7 mg BID
[35] = early 35% reduction in UPCR, week 26, 39.5 mg BID
[36] = early 35% reduction in UPCR, week 36, 23.7 mg BID
[37] = early 35% reduction in UPCR, week 36, 39.5 mg BID
[38] = early 35% reduction in UPCR, week 48, 23.7 mg BID

C=C/C=C/C[C@@H](C)[C@@H](O)[C@H]1C(=O)N[C@@H](CC)C(=O)N(C)CC(=O)N(C)[C@@H](CC(C)C)C(=O)N[C@@H](C(C)C)C(=O)N(C)[C@@H](CC(C)C)C(=O)N[C@@H](C)C(=O)N[C@H](C)C(=O)N(C)[C@@H](CC(C)C)C(=O)N(C)[C@@H](CC(C)C)C(=O)N(C)[C@@H](C(C)C)C(=O)N1C [voclosporin]
3: No Week 48 Partial Remission No Early Drop [3] | Week 48 Partial Remission No Early Drop [12] | Week 48 Partial Remission No Early Drop [14] | No Week 48 Partial Remission No Early Drop [15] | Week 48 Partial Remission No Early Drop [18] | No Week 48 Partial Remission No Early Drop [19] | Early Reduction No [21] | No Week 48 Partial Remission No Early Drop [21] | Week 48 Partial Remission No Early Drop [31] | Week 48 Partial Remission No Early Drop [34]
32: Week 48 Partial Remission No Early Drop [23]
10: No Week 48 Partial Remission Early Drop [3] | No Week 48 Partial Remission Early Drop [8] | Week 48 Partial Remission No Early Drop [8] | No Week 48 Partial Remission Early Drop [9] | Early Reduction No [12] | Early Reduction No [14] | Early Reduction No (early 30% reduction in UPCR, week 20, 39.5 mg BID) | No Week 48 Partial Remission Early Drop [19] | No Week 48 Partial Remission No Early Drop [25] | No Week 48 Partial Remission Early Drop [27] | Week 48 Partial Remission No Early Drop [28]
2: Week 48 Partial Remission No Early Drop [4] | Early Reduction No [5] | No Week 48 Partial Remission No Early Drop [5] | Week 48 Partial Remission No Early Drop [20] | Week 48 Partial Remission No Early Drop [37]
16: Week 48 Partial Remission No Early Drop (early 30% reduction in UPCR, week 4, 39.5 mg BID) | Week 48 Partial Remission No Early Drop (early 30% reduction in UPCR, week 6, 39.5 mg BID) | Week 48 Partial Remission No Early Drop (early 35% reduction in UPCR, week 6, 39.5 mg BID)
31: Week 48 Partial Remission Early Drop [7]
7: No Week 48 Partial Remission Early Drop [6] | Week 48 Partial Remission No Early Drop [9] | Week 48 Partial Remission No Early Drop [10] | No Week 48 Partial Remission No Early Drop (early 30% reduction in UPCR, week 12, 23.7 mg BID) | Week 48 Partial Remission No Early Drop [11] | No Week 48 Partial Remission No Early Drop [12] | No Week 48 Partial Remission No Early Drop [13] | No Week 48 Partial Remission No Early Drop [14] | No Week 48 Partial Remission No Early Drop [16] | No Week 48 Partial Remission Early Drop [17] | No Week 48 Partial Remission No Early Drop [20] | Week 48 Partial Remission No Early Drop [27] | No Week 48 Partial Remission No Early Drop [29] | No Week 48 Partial Remission No Early Drop [30] | Early Reduction No [32] | No Week 48 Partial Remission No Early Drop [33] | No Week 48 Partial Remission Early Drop [34] | No Week 48 Partial Remission No Early Drop [37] | No Week 48 Partial Remission Early Drop [38]
8: No Week 48 Partial Remission Early Drop [1] | Early Reduction No [4] | No Week 48 Partial Remission No Early Drop [8] | Week 48 Partial Remission No Early Drop [13] | Early Reduction No [18] | No Week 48 Partial Remission Early Drop [21] | No Week 48 Partial Remission No Early Drop (early 35% reduction in UPCR, week 4, 39.5 mg BID) | Week 48 Partial Remission No Early Drop [25] | Week 48 Partial Remission No Early Drop [26] | Week 48 Partial Remission No Early Drop [30] | No Week 48 Partial Remission Early Drop [31] | No Week 48 Partial Remission No Early Drop [31] | No Week 48 Partial Remission Early Drop [32] | Early Reduction No [34]
9: No Week 48 Partial Remission Early Drop [5] | Early Reduction No [6] | No Week 48 Partial Remission No Early Drop [6] | No Week 48 Partial Remission No Early Drop [9] | No Week 48 Partial Remission Early Drop [14] | Week 48 Partial Remission No Early Drop [16] | Early Reduction No [20] | No Week 48 Partial Remission Early Drop [24] | No Week 48 Partial Remission No Early Drop [24] | No Week 48 Partial Remission Early Drop [25] | No Week 48 Partial Remission No Early Drop [27] | Week 48 Partial Remission No Early Drop [33] | No Week 48 Partial Remission Early Drop [36] | Early Reduction No [37]
1: Week 48 Partial Remission No Early Drop [2] | Week 48 Partial Remission No Early Drop [3] | Week 48 Partial Remission No Early Drop [15] | Week 48 Partial Remission No Early Drop [17] | Week 48 Partial Remission No Early Drop [19] | Week 48 Partial Remission No Early Drop [32] | Week 48 Partial Remission No Early Drop [36]
11: No Week 48 Partial Remission Early Drop [7] | No Week 48 Partial Remission Early Drop (early 30% reduction in UPCR, week 4, 23.7 mg BID) | Early Reduction No [10] | Early Reduction No [11] | No Week 48 Partial Remission Early Drop [12] | No Week 48 Partial Remission Early Drop [15] | No Week 48 Partial Remission Early Drop [18] | No Week 48 Partial Remission Early Drop [20] | Early Reduction No [22] | No Week 48 Partial Remission No Early Drop [22] | No Week 48 Partial Remission Early Drop [23] | No Week 48 Partial Remission Early Drop (early 35% reduction in UPCR, week 4, 23.7 mg BID) | Early Reduction No [29] | No Week 48 Partial Remission Early Drop [29] | Early Reduction No [31] | Early Reduction No (early 35% reduction in UPCR, week 20, 39.5 mg BID) | Early Reduction No [35] | No Week 48 Partial Remission Early Drop [35] | No Week 48 Partial Remission Early Drop [37]
4: No Week 48 Partial Remission No Early Drop [1] | No Week 48 Partial Remission No Early Drop [2] | Early Reduction No [3] | No Week 48 Partial Remission No Early Drop [10] | No Week 48 Partial Remission No Early Drop [11] | Early Reduction No [15] | Early Reduction No [19] | No Week 48 Partial Remission No Early Drop [26] | No Week 48 Partial Remission No Early Drop [28] | Week 48 Partial Remission No Early Drop [29] | No Week 48 Partial Remission No Early Drop [36] | Early Reduction No [38] | No Week 48 Partial Remission No Early Drop [38] | No Week 48 Partial Remission Early Drop (early 35% reduction in UPCR, week 48, 39.5 mg BID)
39: Early Reduction Yes [23]
29: Week 48 Partial Remission No Early Drop [7]
